In patent US10941435B2, “Methods and compositions for detecting or measuring caspases or apoptosis” (priority 2016, dated 2021):

Tests used:
BPAEC cells = test: Dye toxicity experiment, 48 hour incubation, imaging; settings: 5 μM dye 48 hours, then 1 μM staurosporine overnight
Experimental: In another experiment to look at dye toxicity. BPAEC cells were incubated overnight in growth media (DMEM+10% FBS). […] After the 48 hour incubation, DMSO (control) or 1 μM staurosporine (final concentration) was added to a subset of the dye-treated cells and incubated overnight at 37° C.

Jurkat cells [1] = test: Flow cytometric detection of caspase activity and apoptosis, staurosporine dilution series; type: cell-based
Experimental: Jurkat cells in log phase were resuspended in complete medium (RPMI-1640, supplemented with 10% Fetal Bovine Serum, 2 mM L-glutamine & 55 U/mL) and adjusted to a concentration of 2×10^6 cells per milliliter. 100 μl of cells were aliquoted in each well of a 96-well, V-bottom microplate so that 8 dilutions in triplicate were tested for each substrate.
Drug dilutions for treating cells were created by adding 1000 μL of complete medium containing 2 μM Staurosporine, 1:2 dilutions of this were added to 500 μL of complete medium, so that a series of 8 dilutions of Staurosporine were created.
100 μL of the media/Staurosporine mixtures were added to each well so that 3 wells of cells contained the highest dose, and then repeated for the next set of 3 wells.
Cells were incubated at 37° C., 5% CO2 in a standard cell culture incubator for 4 hours.
After the 4 hour incubation, each well had 1 μL of caspase substrate added so that the final concentration of the substrate was 2 μM of substrate in 200 μL of media. […]
At the end of the incubation, cells were analyzed using an ATTUNE® NXT Acoustic Focusing Cytometer (Thermo Fisher Scientific, Waltham. Mass.) using the 488 nm excitation and 530/30 nm emission filters to detect CELLEVENT™ Green, or the 405 nm excitation laser and the 440/50 nm emission filters to detect Compound 1. […]

HeLa cells [2] = test: Fluorescence microscopy detection of caspase activity and apoptosis, nuclear intensity and Z'; type: cell-based; settings: 1 μM versus 1 nM staurosporine, 18 hour incubation, HCSStudio
Experimental: HeLa cells at a density of 7500 cells/well were incubated overnight in growth media (MEM+10% FBS. L-glutamine and Pen-Strep). Half of the plate was treated with 1 μM Staurosporine (FIG. 8B), while the other half was treated with 1 nM Staurosporine (FIG. 8A). After an 18 hour incubation (37° C., 5% CO2), all cells were incubated with SYT®82 (FIGS. 8A and 8B, left panels) and Compound 1 (FIGS. 8A and 8B, center panels). The average intensity of Compound 1 in the cellular nuclear region was calculated using HCSStudio (Compartmental Analysis Bioapplication), and a Z′ was determined (Z′=0.63).

Jurkat cells [3] = test: Flow cytometry of Jurkat cells treated with 1 μM staurosporine for 1 hour, then Compound 1; type: cell-based; settings: for positive population, density plots: not shown
Experimental: In another experiment, Jurkat cells treated with 1 μM Staurosporine for 1 hour (FIG. 5A) or untreated control cells (FIG. 5B) were then treated with Compound 1. Cells were then analyzed on an ATTUNE® NXT flow cytometer. The cells were oriented on a SSC/FSC plot to include both low and high side scatter cells, but to exclude debris and gated to exclude doublets (not shown).

HeLa cells [4] = test: Fluorescence microscopy and HCS staurosporine dose-response; type: cell-based; settings: 5 hours; for recognition of apoptotic cells, imaging: 5 μM Compound 1 or 9 or 4 μM CELLEVENT Green 3/7, 10 μM to 0 μM staurosporine, FIG. 9A-9C; for dose-response curve of dye fluorescence to staurosporine: 5 μM dye, 10 μM to 0 μM staurosporine, CX5 HCS, FIG. 9D
Experimental: The dye/staurosporine stock solution was diluted 1:10 onto HeLa cells in complete media for a final concentration starting at 5 μM Compound 1 or Compound 9, or 4 μM CELLEVENT Green 3/7 and 10 μM staurosporine and ending at 0 μM staurosporine. After a 5 hour incubation at 37° C., live cells were imaged using white light, DAPI and FITC filters. The cells were then fixed and stained with HCS […]™ Deep Red stain (Thermo Fisher Scientific, Waltham, Mass.) and quantified on a […]™ CX5 High Content Screening (HCS) Platform (Thermo Fisher Scientific, Waltham, Mass.).

Jurkat cells [5] = test: Flow cytometry of Jurkat cells +/- 0.5 μM staurosporine, with SYTOX Dead Cell Stain; type: cell-based; settings: Jurkat cells +/- 0.5 μM staurosporine 3.5 hours, 1 μM dye 30 min, FIG. 7A/7B
Experimental: In yet another experiment, Jurkat cells were resuspended at 1×10^6 cells/ml in RPMI medium+10% FBS and aliquoted into 0.2 ml samples. The cells were treated with 0.5 μM Staurosporine (+STR) or without (−STR) for 3.5 hours at 37° C. […] 1 μl SYTOX™ Dead Cell Stain (Thermo Fisher Scientific, Waltham. Mass.) was added to the cells and incubated for at least 15 min. Cells were analyzed on an ATTUNE™ NXT flow cytometer as described above and were analyzed without washing.

SMILES	detection of staurosporine-induced apoptotic cells after long incubation with dye (BPAEC cells)	positive cells (percent positive of intact single cells) (Jurkat cells [1]; 1 μM staurosporine 4 hours, 2 μM substrate 30 minutes, FIG. 4A/4B)	detection of apoptosis over the entire staurosporine concentration range, CELLEVENT Green 3/7 versus Compound 1 (Jurkat cells [1]; 8 staurosporine dilutions in triplicate, 2 μM substrate, FIG. 3)	Z' from average intensity of Compound 1 in the cellular nuclear region (HeLa cells [2])	Compound 1 positive cells, histograms (Jurkat cells [3]; Jurkat cells treated with 1 μM staurosporine for 1 hour, FIG. 5A)	positive population, density plots (Jurkat cells [3]; Jurkat cells treated with 1 μM staurosporine for 1 hour)	Compound 1 positive cells, histograms (Jurkat cells [3]; untreated control Jurkat cells (no staurosporine) stained with Compound 1, FIG. 5B)	positive population, density plots (Jurkat cells [3]; untreated control Jurkat cells (no staurosporine) stained with Compound 1)	recognition of apoptotic cells, imaging (HeLa cells [4])	dose-response curve of dye fluorescence to staurosporine (HeLa cells [4])	distinction of non-apoptotic from apoptotic cell populations (Jurkat cells [5])
CC(=O)N[C@@H](CC(=O)O)C(=O)N[C@@H](CCC(=O)O)C(=O)N[C@H](C(=O)N[C@@H](CC(=O)O)C(=O)NCCN(C)c1ccc(-c2nc3ccc(-c4nc5ccc(N6CCN(C)CC6)cc5[nH]4)cc3[nH]2)cc1)C(C)C [Compound 1]	able to detect the staurosporine-induced apoptotic cells	84.9%	essentially no difference	0.63	3.49%	3.55%	1.30%	1.32%	recognize apoptotic cells	good induction of apoptosis	–
CC(=O)N[C@@H](CC(=O)O)C(=O)N[C@@H](CCC(=O)O)C(=O)N[C@H](C(=O)N[C@@H](CC(=O)O)C(=O)NCCCCCN(C)c1ccc(-c2nc3ccc(-c4nc5ccc(N6CCN(C)CC6)cc5[nH]4)cc3[nH]2)cc1)C(C)C [Compound 9]	able to detect the staurosporine-induced apoptotic cells	–	–	–	–	–	–	–	recognize apoptotic cells	good induction of apoptosis	distinguished non-apoptotic from apoptotic cell populations
